# Results reported in patent US20210341448A1, “SCREENING METHOD FOR THERAPEUTIC DRUG OR PROPHYLACTIC DRUG FOR TAUOPATHY AND DIAGNOSTIC METHOD FOR TAUOPATHY” (National Center for Geriatrics and Gerontology, priority 2018, published 2021).
# Key:
# [1] = test system: NT2-N cells; assay: Adhesion activity of tau oligomers to NT2-N cell surface (fluorescence microscopy); assay type: cell-based, human; settings: on ice 30 minutes, no membrane permeabilization
# Description: Cal-520 AM was loaded to the NT2-N cells prepared in the above (4-1) by the procedure of the above (4-2), exposed to the tau oligomer sample (10 μl/ml) prepared in the above (1-3) and incubated on ice for 30 minutes. Subsequently, the cells were washed 3 times with DPBS(−) (137 mM of NaCl, 2.68 mM of KCl, 1.47 mM of KH2PO4, 8.06 mM of Na2HPO4) and fixed with 4% paraformaldehyde at room temperature for 15 minutes. After thorough washing with DPBS(−) (10 minutes×3 times), blocking was done with 1% BSA and 3% donkey serum/DPBS for 30 minutes. Then, the anti-phosphorylated tau antibody (anti-pTau (paired pS409, pS412, pS413), AnaSpec, #AS-55416) (1:1500 dilution) as the primary antibody was reacted at room temperature for 1 hour, and Alexa594-labelled anti-mouse IgG (Jackson Immuno Research, #711-585-152) (1:1500 dilution) as a secondary antibody was reacted at room temperature for 30 minutes, to thereby carry out immunostaining. The stained cells were observed using a fluorescence microscope (BZ-X710, Keyence Corporation).
# The HT-tau oligomer sample prepared in the above (1-4), instead of the tau oligomer sample prepared in the above (1-3), was exposed to the NT2-N cells by the same procedure as in the above (5-1). After thorough washing, fluorescence microscopic observation was carried out.
# [2] = test system: postsynaptic NMDAR and AMPAR; assay: Western blot of NMDA and AMPA receptor amounts on the synapse, brain slices of aging C57BL/6 mice; parameters: species or system mouse; settings: aging C57BL/6 brain slice, 0.5% Triton X-100-insoluble membrane fraction
# Description: As the molecule mechanism of NMDAR-LTD, it has been known that the AMPA receptors (hereinafter described as “AMPAR”) and/or the NMDA receptors (NMDAR) are incorporated into a cell by the endocytosis in the postsynaptic membrane caused by the activation of the NMDA receptors. Thus, an analysis was performed on the changes in amount of NMDARs and AMPARs on synapses in the brain slice specimens exposed to the tau oligomer sample and the brain slice specimens not exposed to the tau oligomer sample, prepared by the procedures of the above (2-1) and (2-2).
# The brain slice specimens were frozen and disrupted in a 50-fold volume of homogenizing buffer (4 mM of HEPES, 2 mM of EGTA, 0.32 M of sucrose, pH 7.4) using a Teflon® homogenizer. The disrupted tissue solution was centrifuged at 4° C., 1,000×g for 15 minutes to thereby collect the supernatant, and the supernatant was further centrifuged at 4° C., 12,000×g for 15 minutes to thereby collect membrane fractions (pellets). The obtained membrane fractions were dissolved in tris-buffered saline containing 0.5% Triton X-100 (50 mM of Tris, 500 mM of NaCl, pH 7.4) and were centrifuged at 4° C., 20,000×g for 15 minutes. […] The western blot was carried out on the 0.5% Triton X-100-insoluble membrane fraction sample to quantify the AMPA receptor (GluA2 subunit) and the NMDA receptors (NR2a and NR2b subunits). […]
# [3] = target: T1, NMDAR (Mus musculus, UniProt P35436+P35438+Q01097); assay: Coimmunoprecipitation of tau and NMDAR with anti-tau antibody (TauC); assay type: binding; settings: tau knockout brain slice exposed to tau oligomer sample, IP: TauC, western blot anti-NR1
# T1 construct: from tissue
# T1 sequence (P35436 23-1464, other chains not shown): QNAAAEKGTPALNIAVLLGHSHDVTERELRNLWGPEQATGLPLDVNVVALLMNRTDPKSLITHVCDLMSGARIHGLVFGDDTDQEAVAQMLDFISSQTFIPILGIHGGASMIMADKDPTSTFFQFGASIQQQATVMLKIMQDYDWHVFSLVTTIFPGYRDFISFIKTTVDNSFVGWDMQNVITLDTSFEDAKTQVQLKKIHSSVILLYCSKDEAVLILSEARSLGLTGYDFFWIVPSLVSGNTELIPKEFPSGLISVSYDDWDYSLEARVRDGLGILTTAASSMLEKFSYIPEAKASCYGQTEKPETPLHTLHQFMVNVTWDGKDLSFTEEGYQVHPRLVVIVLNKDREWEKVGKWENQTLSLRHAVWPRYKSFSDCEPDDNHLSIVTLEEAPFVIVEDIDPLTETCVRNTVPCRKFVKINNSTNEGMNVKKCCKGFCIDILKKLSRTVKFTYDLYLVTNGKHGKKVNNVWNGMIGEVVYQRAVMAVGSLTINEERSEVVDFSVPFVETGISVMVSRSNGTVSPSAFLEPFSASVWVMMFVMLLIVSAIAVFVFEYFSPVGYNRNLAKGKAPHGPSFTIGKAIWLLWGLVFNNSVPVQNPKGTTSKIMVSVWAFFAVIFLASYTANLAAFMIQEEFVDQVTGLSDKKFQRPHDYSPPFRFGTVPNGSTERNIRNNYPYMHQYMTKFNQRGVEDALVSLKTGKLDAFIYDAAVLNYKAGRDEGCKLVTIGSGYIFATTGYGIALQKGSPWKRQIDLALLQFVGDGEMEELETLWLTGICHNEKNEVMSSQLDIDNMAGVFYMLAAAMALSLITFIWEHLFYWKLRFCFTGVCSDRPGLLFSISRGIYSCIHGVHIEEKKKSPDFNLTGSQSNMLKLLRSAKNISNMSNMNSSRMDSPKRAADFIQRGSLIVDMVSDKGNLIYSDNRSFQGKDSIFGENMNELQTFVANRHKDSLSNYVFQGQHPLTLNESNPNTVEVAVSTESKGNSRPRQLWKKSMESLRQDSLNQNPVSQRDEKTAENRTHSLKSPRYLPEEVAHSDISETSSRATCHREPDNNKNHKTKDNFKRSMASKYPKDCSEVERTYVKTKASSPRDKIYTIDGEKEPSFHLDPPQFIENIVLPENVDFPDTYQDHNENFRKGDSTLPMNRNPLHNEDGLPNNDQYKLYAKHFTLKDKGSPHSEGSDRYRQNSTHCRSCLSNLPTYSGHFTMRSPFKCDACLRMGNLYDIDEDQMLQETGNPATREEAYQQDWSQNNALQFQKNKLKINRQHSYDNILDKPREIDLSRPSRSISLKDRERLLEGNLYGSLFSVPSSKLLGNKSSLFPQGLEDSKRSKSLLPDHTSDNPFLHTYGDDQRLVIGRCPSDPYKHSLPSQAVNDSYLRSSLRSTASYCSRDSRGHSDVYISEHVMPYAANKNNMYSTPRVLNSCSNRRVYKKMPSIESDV
# T1 sequence (Q01097 27-1482, other chains not shown): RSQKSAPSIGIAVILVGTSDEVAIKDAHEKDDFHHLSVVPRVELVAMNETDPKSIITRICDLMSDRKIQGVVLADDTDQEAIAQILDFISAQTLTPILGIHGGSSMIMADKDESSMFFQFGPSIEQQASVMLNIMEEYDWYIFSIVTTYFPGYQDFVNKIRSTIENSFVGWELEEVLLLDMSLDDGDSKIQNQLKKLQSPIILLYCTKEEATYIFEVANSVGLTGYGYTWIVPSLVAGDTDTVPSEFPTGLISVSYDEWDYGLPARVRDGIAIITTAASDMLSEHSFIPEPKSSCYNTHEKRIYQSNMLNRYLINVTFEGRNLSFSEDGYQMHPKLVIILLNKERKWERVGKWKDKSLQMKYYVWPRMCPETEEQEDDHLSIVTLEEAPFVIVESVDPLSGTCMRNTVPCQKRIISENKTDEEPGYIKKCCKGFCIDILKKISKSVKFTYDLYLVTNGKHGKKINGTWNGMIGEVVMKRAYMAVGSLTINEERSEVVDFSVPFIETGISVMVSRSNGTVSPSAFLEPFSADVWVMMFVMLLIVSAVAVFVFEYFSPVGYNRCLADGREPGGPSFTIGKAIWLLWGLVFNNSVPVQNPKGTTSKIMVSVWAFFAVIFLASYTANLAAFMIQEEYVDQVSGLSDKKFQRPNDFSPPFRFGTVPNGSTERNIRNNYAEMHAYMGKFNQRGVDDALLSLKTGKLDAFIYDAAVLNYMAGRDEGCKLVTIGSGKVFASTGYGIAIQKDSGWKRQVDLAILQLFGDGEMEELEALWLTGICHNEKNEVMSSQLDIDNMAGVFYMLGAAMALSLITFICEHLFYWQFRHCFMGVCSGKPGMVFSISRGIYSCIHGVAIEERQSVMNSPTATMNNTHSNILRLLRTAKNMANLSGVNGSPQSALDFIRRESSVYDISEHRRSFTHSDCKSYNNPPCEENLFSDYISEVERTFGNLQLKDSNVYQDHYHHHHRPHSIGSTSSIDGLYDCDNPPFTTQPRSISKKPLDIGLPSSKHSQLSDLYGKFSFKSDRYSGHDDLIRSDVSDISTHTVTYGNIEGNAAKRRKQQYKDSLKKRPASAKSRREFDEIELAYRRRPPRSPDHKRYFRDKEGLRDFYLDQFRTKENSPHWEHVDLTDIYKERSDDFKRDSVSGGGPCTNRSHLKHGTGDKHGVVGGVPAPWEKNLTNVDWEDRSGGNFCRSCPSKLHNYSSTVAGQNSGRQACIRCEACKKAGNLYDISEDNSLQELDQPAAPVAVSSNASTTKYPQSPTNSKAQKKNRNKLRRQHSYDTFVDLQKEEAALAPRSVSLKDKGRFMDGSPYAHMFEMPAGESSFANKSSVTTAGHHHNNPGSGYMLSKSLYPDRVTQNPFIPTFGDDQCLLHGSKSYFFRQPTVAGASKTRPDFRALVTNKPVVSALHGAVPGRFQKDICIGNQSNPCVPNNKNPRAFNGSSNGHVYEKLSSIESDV
# Description: Whether or not the tau oligomers directly bind and interact with NMDARs was tested by the coimmunoprecipitation. The tau-knockout-brain slice specimens exposed to the tau oligomer sample prepared by the procedure of the above (2-1) and (2-2) was homogenized in 50-fold volume of the lysis buffer (4 mM of HEPES, 2 mM of EGTA, 0.32 M of sucrose, 1% Protease Inhibitor Cocktail, 1% Phosphatase Inhibitor Cocktail (Nacalai Tesque Inc., #07575-51)) and was centrifuged at 4° C., 12,000×g for 15 minutes to thereby collect pellets. The obtained pellets were dissolved in a 0.1% Triton X-100/TBS solution (25 mM of Tris-HCl, 150 mM of NaCl, 1 mM of EDTA, 1% NP-40, 5% glycerol, 0.1% Triton X-100, pH 7.4) and the resultant was used as a membrane protein solution. Coimmunoprecipitation on the obtained membrane protein solution was carried out by using an anti-tau antibody (TauC) (Dako, #A0024) (1:2000 dilution) and Pierce Direct Magnetic IP/Co-IP Kit (Thermo Fisher Scientific, #88828), in accordance with the recommended protocol by the kit. The collected coimmunoprecipitation samples were electrophoresed and then NMDAR was detected by the western blot. The antibody used was an anti-NR1 subunit antibody (Merck Millipore, #MAN363) (1:2000 dilution).
# [4] = test system: NMDA receptor; assay: NMDAR-based sandwich ELISA; assay type: binding, mouse; settings: tau oligomer solution of 10^−11 g/ml or less
# [5] = test system: postsynaptic NMDAR and AMPAR; assay: Western blot of NMDA and AMPA receptor amounts on the synapse, brain slices of tau knockout mice; settings: tau knockout mouse brain slice
# Description: The brain slice specimens were frozen and disrupted in a 50-fold volume of homogenizing buffer (4 mM of HEPES, 2 mM of EGTA, 0.32 M of sucrose, pH 7.4) using a Teflon® homogenizer. The disrupted tissue solution was centrifuged at 4° C., 1,000×g for 15 minutes to thereby collect the supernatant, and the supernatant was further centrifuged at 4° C., 12,000×g for 15 minutes to thereby collect membrane fractions (pellets). The obtained membrane fractions were dissolved in tris-buffered saline containing 0.5% Triton X-100 (50 mM of Tris, 500 mM of NaCl, pH 7.4) and were centrifuged at 4° C., 20,000×g for 15 minutes. The supernatant was used as a 0.5% Triton X-100-soluble membrane fraction sample and the pellet was used as a 0.5% Triton X-100-insoluble membrane fraction sample. The western blot was carried out on the 0.5% Triton X-100-insoluble membrane fraction sample to quantify the AMPA receptor (GluA2 subunit) and the NMDA receptors (NR2a and NR2b subunits). The antibodies used were an anti-Glu2 antibody (Alomone Labs, #AGC-073) (1:1000 dilution), an anti-NR2A antibody (Alomone Labs, #AGC-002) (1:1000 dilution), and an anti-NR2B antibody (Alomone Labs, #AGC-003) (1:1000 dilution).
# In the tau knockout mice, the reduction of NMDARs and AMPARs on the synapse by the exposure of the tau oligomer sample was not observed.
substance,measurement,setting,value
"tau oligomer: polymer of human tau 2N4R monomers, polymerized with mouse brain extract and ATP, collected as pellets",adhesion to the cell surface,[1],adhered in a patchy pattern
same,amount of AMPARs on the postsynaptic site,"[2]; GluA2, normalized to aCSF",reduced
same,amount of NMDARs on the postsynaptic site,"[2]; NR2a and NR2b, normalized to aCSF",reduced
same,coimmunoprecipitation of NR1 subunit with tau,[3],clear band of the NR1 subunits was detected
same,binding of the tau oligomer to the NMDA receptor,[4],increased in a concentration-dependent manner
same,reduction of AMPARs on the synapse,[5],not observed
same,reduction of NMDARs on the synapse,[5],not observed
